Tests used:
Format in all cases: in vivo
sorghum [1] = test: Herbicidal activity test against upland field weeds (foliar treatment test); conditions: 50 g ai/ha, scale 0-100; for plant injury at 50 g/ha: Sorghum
How it was run: (§1)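 Weeds were raised from seed or rootstocks in horticultural soil in a greenhouse (30±5° C., 14/10 h light/dark), then foliage was hand-sprayed with compound at 50 or 75 g a.i./ha in 50% acetone with 0.1% Tween-20. Control was scored visually 0–100 against untreated plants after 14 days, or 21 if needed.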

barnyard grass [2] = test: as above; design: key to Foliar treatment herbicidal activity, barnyard grass: 0 (no control); 100 (complete control); conditions: 50 g ai/ha, scale 0-100; for pest or weed control at 50 g/ha: Echinochloa crus-galli
How it was run: as §1

quack grass [3] = test: as above; design: key to Foliar treatment herbicidal activity, quack grass: 0 (no control); 100 (complete control); conditions: 50 g ai/ha, scale 0-100
How it was run: as §1

crabgrass [4] = test: as above; design: key to Foliar treatment herbicidal activity, Crabgrass: 0 (no control); 100 (complete control); conditions: 50 g ai/ha, scale 0-100
How it was run: as §1

fall panicum [5] = test: as above; conditions: 50 g ai/ha, scale 0-100; for pest or weed control at 50 g/ha: Panicum dichotomiflorum
How it was run: as §1

black nightshade [6] = test: as above; design: key to Foliar treatment herbicidal activity, black nightshade: 0 (no control); 100 (complete control); conditions: 50 g ai/ha, scale 0-100
How it was run: as §1

indian jointvetch [7] = test: as above; design: key to Foliar treatment herbicidal activity, Indian jointvetch: 0 (no control); 100 (complete control); conditions: 50 g ai/ha, scale 0-100
How it was run: as §1

velvetleaf [8] = test: as above; design: key to Foliar treatment herbicidal activity, velvet leaf: 0 (no control); 100 (complete control); conditions: 50 g ai/ha; for Foliar treatment herbicidal activity, velvet leaf: scale 0-100
How it was run: as §1

cocklebur [9] = test: as above; conditions: 50 g ai/ha, scale 0-100; for pest or weed control at 50 g/ha: Xanthium strumarium
How it was run: as §1

bindweed [10] = test: as above; design: key to Foliar treatment herbicidal activity, Bindweed: 0 (no control); 100 (complete control); conditions: 50 g ai/ha, scale 0-100
How it was run: as §1

sorghum [11] = test: Herbicidal activity test against upland field weeds (soil treatment test); design: key to Soil treatment herbicidal activity, Sorghum: 0 (no control); 100 (complete control); conditions: 50 g ai/ha, scale 0 (no control) to 100 (complete control)
Procedure: (§2) Experimental Example 2: Herbicidal Activity Test Against Upland Field Weeds (Soil Treatment Test) Soil treatment was performed as follows: After filling a square plastic pot having a surface area of 350 cm^2 with sandy loam mixed with 1 g per pot (350 cm^2) of horticultural mixed fertilizer (N:P:K=11:10:11), seeds (10˜15 grains) or rootstocks (2 pieces) of 5 kinds of grassy weeds of sorghum, barnyard grass, quack grass, crabgrass, fall panicum, and 5 kinds of broadleaf weeds of black nightshade, indian jointvetch, velvetleaf, cocklebur, bindweed, which had been stored in a low temperature (6° C.), were sown. The day after sowing, test compound solutions were made by diluting with a preparation solution (including 50% acetone, 0.1% Tween-20) so that the final treatment amount of the test compounds was 50 or 75 g a.i./ha. The prepared test compound solution was used for treating soil surface by hand-spraying 14 mL per pot in a fume hood. After the treatment, it was managed under the same greenhouse conditions (average temperature 30±5° C., light/dark=14/10 hours), and after 14 days (after 21 days if necessary), the external symptoms and efficacy were investigated according to the scale of 0 (no control) to 100 (complete control). The results of Table 8 were obtained by evaluating weed control value to the untreated control by conducting visual assessment.

barnyard grass [12] = test: as above; design: key to Soil treatment herbicidal activity, barnyard grass: 0 (no control); 100 (complete control); conditions: 50 g ai/ha, scale 0 (no control) to 100 (complete control)
Procedure: as §2

quack grass [13] = test: as above; design: key to Soil treatment herbicidal activity, quack grass: 0 (no control); 100 (complete control); conditions: 50 g ai/ha, scale 0 (no control) to 100 (complete control)
Procedure: as §2

crabgrass [14] = test: as above; design: key to Soil treatment herbicidal activity, Crabgrass: 0 (no control); 100 (complete control); conditions: 50 g ai/ha, scale 0 (no control) to 100 (complete control)
Procedure: as §2

fall panicum [15] = test: as above; design: key to Soil treatment herbicidal activity, Fall panicum: 0 (no control); 100 (complete control); conditions: 50 g ai/ha, scale 0 (no control) to 100 (complete control)
Procedure: as §2

black nightshade [16] = test: as above; design: key to Soil treatment herbicidal activity, black nightshade: 0 (no control); 100 (complete control); conditions: 50 g ai/ha, scale 0 (no control) to 100 (complete control); for pest or weed control at 50 g/ha: Solanum nigrum
Procedure: as §2

indian jointvetch [17] = test: as above; design: key to Soil treatment herbicidal activity, Indian jointvetch: 0 (no control); 100 (complete control); conditions: 50 g ai/ha, scale 0 (no control) to 100 (complete control)
Procedure: as §2

velvetleaf [18] = test: as above; design: key to Soil treatment herbicidal activity, velvet leaf: 0 (no control); 100 (complete control); conditions: 50 g ai/ha, scale 0 (no control) to 100 (complete control)
Procedure: as §2

bindweed [19] = test: as above; design: key to Soil treatment herbicidal activity, Bindweed: 0 (no control); 100 (complete control); conditions: 50 g ai/ha, scale 0 (no control) to 100 (complete control)
Procedure: as §2

corn = test: Phytotoxicity test for upland field crops (foliar treatment test); design: key: 0 (no harm); 9 (complete withered)
How it was run: (§3)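 Application rate ranged 19˜300 g a.i./ha, delivered as a foliar spray (100 ml/m^2) in 33% acetone with 0.1% Tween-20 to crops raised at 30±5 °C under 14/10 h light/dark. Symptoms were assessed 7 and 14 days post-treatment, extending to 21 days where necessary, using a 0–9 injury grade relative to untreated control.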

wheat = test: as above; design: key: 0 (no harm); 9 (complete withered)
How it was run: as §3

cocklebur [20] = test: Herbicidal activity test against upland field weeds (soil treatment test); design: key to Soil treatment herbicidal activity, Cocklebur: 0 (no control); 100 (complete control); conditions: 50 g ai/ha, scale 0 (no control) to 100 (complete control)
Procedure: as §2

[21] = 50 g ai/ha, Corn (7 days after treatment)
[22] = 50 g ai/ha, Corn (14 days after treatment)
[23] = 100 g ai/ha, Corn (7 days after treatment)
[24] = 100 g ai/ha, Corn (14 days after treatment)
[25] = 50 g ai/ha, Wheat (7 days after treatment)
[26] = 50 g ai/ha, Wheat (14 days after treatment)
[27] = 100 g ai/ha, Wheat (7 days after treatment)
[28] = 100 g ai/ha, Wheat (14 days after treatment)

SMILES | plant injury at 50 g/ha (sorghum [1]) | pest or weed control at 50 g/ha (barnyard grass [2]) | Foliar treatment herbicidal activity, quack grass (quack grass [3]) | pest or weed control at 50 g/ha (fall panicum [5]) | Foliar treatment herbicidal activity, black nightshade (black nightshade [6]) | pest or weed control at 50 g/ha (indian jointvetch [7]) | pest or weed control at 50 g/ha (cocklebur [9]) | Soil treatment herbicidal activity, barnyard grass (barnyard grass [12]) | Soil treatment herbicidal activity, quack grass (quack grass [13]) | Soil treatment herbicidal activity, Crabgrass (crabgrass [14]) | Soil treatment herbicidal activity, Fall panicum (fall panicum [15]) | pest or weed control at 50 g/ha (black nightshade [16]) | Soil treatment herbicidal activity, Indian jointvetch (indian jointvetch [17]) | Soil treatment herbicidal activity, velvet leaf (velvetleaf [18]) | Foliar treatment phytotoxicity, Corn (corn; [21]) | Foliar treatment phytotoxicity, Corn (corn; [22]) | Foliar treatment phytotoxicity, Corn (corn; [23]) | Foliar treatment herbicidal activity, Crabgrass (crabgrass [4]) | Foliar treatment herbicidal activity, velvet leaf (velvetleaf [8]) | Soil treatment herbicidal activity, Sorghum (sorghum [11]) | other results
Cn1nnc(CSCc2nc(C(F)(F)F)ccc2C(=S)Nc2nnnn2C)n1 [Compound No. 2-107, N-(1-methyl-1H-tetrazol-5-yl)-2-((((2-methyl-2H-tetrazol-5-yl)methyl)thio)methyl)-6-(trifluoromethyl)pyridin-3-carbothioamide] | 70% | 70% | 0 | 60% | 100 | 98% | 98% | 0 | 0 | 0 | 0 | 70% | 0 | 100 | 1 | 0 | 0 |  |  |  | pest or weed control at 50 g/ha (crabgrass [4]; Digitaria sanguinalis): 95%; pest or weed control at 50 g/ha (velvetleaf [8]; Abutilon theophrasti, scale 0-100, read-out: Foliar treatment herbicidal activity, velvet leaf): 70%; pest or weed control at 50 g/ha (bindweed [10]): 98%; plant injury at 50 g/ha (sorghum [11]; Sorghum): 20%; pest or weed control at 50 g/ha (bindweed [19]): 40%; Foliar treatment phytotoxicity, Corn (corn; [24]): 0; Foliar treatment phytotoxicity, Wheat (wheat; [25]): 3; Foliar treatment phytotoxicity, Wheat (wheat; [26]): 3; Foliar treatment phytotoxicity, Wheat (wheat; [27]): 4; Foliar treatment phytotoxicity, Wheat (wheat; [28]): 3
CSc1nc(COCc2nc(C(F)(F)F)ccc2C(=O)Nc2nnnn2C)nn1C [Compound No. 2-131, N-(1-methyl-1H-tetrazol-5-yl)-2-(((1-methyl-5-(methylthio)-1H-1,2,4-triazol-3-yl)methoxy)methyl)-6-(trifluoromethyl)nicotinamide] | 40% | 98% |  | 70% | 100 | 70% | 80% | 0 | 0 | 0 |  | 98% | 100 |  |  |  |  | 100 | 100 | 0 | pest or weed control at 50 g/ha (quack grass [3]): 10%; pest or weed control at 50 g/ha (velvetleaf [18]; Abutilon theophrasti, read-out: Soil treatment herbicidal activity, velvet leaf): 98%; Soil treatment herbicidal activity, Cocklebur (cocklebur [20]): 0
COC(=O)OC(C)N(C(=O)c1ccc(C(F)(F)F)nc1CSCc1nnn(C)n1)c1nnnn1C (stereo not drawn) [Compound No. 4-3, methyl(1-(N-(1-methyl-1H-tetrazol-5-yl)-2-((((2-methyl-2H-tetrazol-5-yl)methyl)thio)methyl)-6-(trifluoromethyl)nicotinamido)ethyl)carbonate] |  |  | 0 |  | 100 |  |  | 0 | 0 | 98 | 0 |  | 0 | 50 | 0 | 0 | 1 | 98 | 98 | 0 | Foliar treatment herbicidal activity, Sorghum (sorghum [1]): 80; Foliar treatment herbicidal activity, barnyard grass (barnyard grass [2]): 98; Foliar treatment herbicidal activity, Fall panicum (fall panicum [5]): 80; Foliar treatment herbicidal activity, Indian jointvetch (indian jointvetch [7]): 100; Foliar treatment herbicidal activity, Cocklebur (cocklebur [9]): 98; Foliar treatment herbicidal activity, Bindweed (bindweed [10]): 100; Soil treatment herbicidal activity, black nightshade (black nightshade [16]): 100; Soil treatment herbicidal activity, Bindweed (bindweed [19]): 0; Foliar treatment phytotoxicity, Corn (corn; [24]): 0; Foliar treatment phytotoxicity, Wheat (wheat; [25]): 0; Foliar treatment phytotoxicity, Wheat (wheat; [26]): 0; Foliar treatment phytotoxicity, Wheat (wheat; [27]): 0; Foliar treatment phytotoxicity, Wheat (wheat; [28]): 0
CC(C)OC(=O)OC(C)N(C(=O)c1ccc(C(F)(F)F)nc1COCc1nnn(C)n1)c1nnnn1C (stereo not drawn) [Compound No. 4-12, isopropyl(1-(N-(1-methyl-1H-tetrazol-5-yl)-2-(((2-methyl-2H-tetrazol-5-yl)methoxy)methyl)-6-(trifluoromethyl)nicotinamido)ethyl)carbonate] |  |  | 0 |  | 100 |  |  | 100 | 0 | 100 | 90 |  | 40 | 100 |  |  |  | 95 | 100 | 20 | Foliar treatment herbicidal activity, Sorghum (sorghum [1]): 70; Foliar treatment herbicidal activity, barnyard grass (barnyard grass [2]): 100; Foliar treatment herbicidal activity, Fall panicum (fall panicum [5]): 98; Foliar treatment herbicidal activity, Indian jointvetch (indian jointvetch [7]): 98; Foliar treatment herbicidal activity, Cocklebur (cocklebur [9]): 98; Foliar treatment herbicidal activity, Bindweed (bindweed [10]): 100; Soil treatment herbicidal activity, black nightshade (black nightshade [16]): 100; Soil treatment herbicidal activity, Bindweed (bindweed [19]): 98

Reference: patent US12495798B2, “Nicotinamide compound and herbicidal composition comprising compound” (KOREA RESEARCH INSTITUTE OF CHEMICAL TECHNOLOGY, priority 2019, dated 2025)
